These are literature values, as cited in article PMC9159073 (Journal of medicinal chemistry, 2022).

In series [1] the test system is SARS-CoV-2 PL^pro. The following applies: read-out: IC50, mass spectrometry assay; nsp 2/3 substrate.
Series [2] has as its system SARS-CoV-2 PL^pro. The following applies: for IC50: read-out: Enzymatic inhibition IC50; for Inhibition of SARS-CoV-2 PLpro: IC50 not quantified.
The subject of the next series is SARS-CoV-2 M^pro. The following applies: read-out: M^pro IC50; no reducing agent in the Mpro assay.
Series [3] deals with SARS-CoV-2 PL^pro.
Series [4] concerns SARS-CoV-2 PL^pro. The source holds these as a separate data set.
Series [5] has as its system SARS-CoV-2 PL^pro. The source holds these as a separate data set.
The subject of series [6] is SARS-CoV-2 PL^pro. The following applies: read-out: IC50, deISGylating activity of PLpro; ISG15-Rh substrate.
Series [7] has as its system SARS-CoV-2.
Series [8] relates to SARS-CoV-2. The following applies: read-out: Antiviral EC50.
Series [9] concerns SARS-CoV-2. The following applies: read-out: Antiviral EC50; A549-hACE2 cells, virus yield reduction assay.
Series [10] concerns SARS-CoV-2 PL^pro. Particulars: increase in FluoZin-3 fluorescence.
Series [11] relates to SARS-CoV-2. Particulars: for Antiviral effect in combination with hydroxychloroquine: combined with hydroxychloroquine; for Antiviral activity in combination with remdesivir: combined with remdesivir.
Series [12] concerns SARS-CoV-2 PL^pro. The following applies: read-out: IC50 (FP assay).
In series [13] the target is SARS-CoV-2 PL^pro. The following applies: read-out: KD (SPR).
In series [14] the test system is host DUBs and DUB-like proteases. The following applies: 10 DUBs or DUB-like proteases.
[15] abbreviates: read-out: IC50, deubiquitinating activity of PLpro.
[16] abbreviates: FRET assay, hit validation study.
The mark [17] stands for this setting: SARS-CoV-2 infected Vero E6 cells.
Where [18] appears, read: read-out: Antiviral EC50 (qRTPCR), Vero E6 cells, qRT-PCR assay.

Read-outs that look alike come from different tables or passages of the source. Some results are limits rather than exact numbers.

For orientation: IC50 means the concentration needed to halve the response being measured. With `Cc1c(S(=O)(=O)O)oc2c1C(=O)C(=O)c1c-2ccc2c1CCCC2(C)C` [Tanshinone IIA sulfonate (36), tanshinone IIA sulfonate], the IC50 in the series with SARS-CoV-2 PL^pro [1] is […].
For `CN(Cc1cn(C2C3=C(OC2(C)C)c2ccccc2C(=O)C3=O)nn1)C1=C(Br)C(=O)c2ccccc2C1=O` (stereo not shown) [Compound 40], the values for the IC50 in the series with SARS-CoV-2 PL^pro [2] (0.1 mM DTT in the PLpro assay) and in the series with SARS-CoV-2 M^pro were 3.1 µM and 66 µM, respectively.
`O=C1c2c(O)cccc2[C@H]([C@@H]2O[C@H](CO)[C@@H](O)[C@H](O)[C@H]2O)c2cc(CO)cc(O)c21` [aloin A (42), aloin A]: the IC50 in the series with SARS-CoV-2 PL^pro [2] is 13.2 µM; in the series with SARS-CoV-2 PL^pro [3] (setting [15]) it was 15.7 µM.
As for `O=C1c2c(O)cccc2[C@@H]([C@@H]2O[C@H](CO)[C@@H](O)[C@H](O)[C@H]2O)c2cc(CO)cc(O)c21` [aloin B (43), aloin B], the IC50 in the series with SARS-CoV-2 PL^pro [2] is 16.1 µM; in the series on SARS-CoV-2 PL^pro [3] (setting [15]) it was 17.5 µM.
For the compound `Cc1cc2nc3c(=O)[nH]c(=O)nc-3n(C)c2cc1C=O` [Ro 08–2750 (33)], the IC50 in the series on SARS-CoV-2 PL^pro [2] (HTS) was 0.53 µM.
For Ac-hTyr-Dap-Gly-Gly-VME [VIR251 (45)], the “Inhibition of SARS-CoV-2 PLpro” value in the series with SARS-CoV-2 PL^pro [2] is recorded as “dose-dependent inhibition”. Besides, the “Inhibition of SARS-CoV PLpro” value in the series on SARS-CoV PL^pro is “dose-dependent inhibition”.
Regarding `Nc1nc2[nH]cnc2c(=S)[nH]1` [6-TG (26), 6-thioguanine], the IC50 in the series with SARS-CoV-2 PL^pro [2] (setting [16]) is more than 50 µM. Besides, in the series with SARS-CoV-2 PL^pro [4], the “Binding to PLpro in the thermal shift assay” value is “no binding”. The “Intracellular PLpro inhibition in the FlipGFP assay” value (“Intracellular PLpro inhibition” for short) with SARS-CoV-2 PL^pro [5] is “did not inhibit”.
Regarding `Cc1cccc2c3c(ccc12)C1=C(C(=O)C3=O)[C@@H](C)CO1` [dihydrotanshinone I (30), dihydrotanshinone I], the half-inhibitory concentration (IC50) in the series with SARS-CoV-2 PL^pro [2] (setting [16]) is 33 µM; with SARS-CoV-2 PL^pro [2] (HTS) it was 0.59 µM.
`O=Cc1ccc(O)cc1` [HBA (22), 4-hydroxybenzaldehyde]: the IC50 with SARS-CoV-2 PL^pro [6] is 3.99 ± 1.33 µM. In addition, in the series on SARS-CoV-2 [7] (Vero E6 cells, qRT-PCR assay), the “Antiviral EC50 (qRTPCR)” value was “not conclusive”.
Regarding `COCC[n+]1c2c(n(Cc3cnccn3)c1C)C(=O)c1ccccc1C2=O.[Br-]` [YM155 (27), YM155], the IC50 was 20.1 µM in the series with SARS-CoV-2 PL^pro [2] (setting [16]); 2.47 ± 0.46 µM in the series on SARS-CoV-2 PL^pro [2] (FRET-based enzymatic assay, Arg-Leu-Arg-Gly-Gly-AMC substrate, 50 mM HEPES, pH 7.5, 2 mM DTT); more than 50 µM in the series with SARS-CoV-2 PL^pro [1]. For the same compound, the “Intracellular PLpro inhibition” value in the series on SARS-CoV-2 PL^pro [5] is “not conclusive due to cell cytotoxicity”.
As usually defined, the EC50 is the concentration giving half of the maximal effect. Turning to `Cc1coc2c1C(=O)C(=O)c1c-2ccc2c1CCCC2(C)C` [tanshinone IIA (31), tanshinone IIA], the EC50 with SARS-CoV-2 [8] is more than 200 µM.
Regarding `C[C@@H](NC(=O)c1ccccc1CCC(=O)NNC(=O)/C(C#N)=C/C1CC1)c1cccc2ccccc12` [Compound 51], the IC50 with SARS-CoV-2 PL^pro [2] (covalent inhibitors) was more than 200 µM.
As to `CN(Cc1cn(C2C3=C(OC2(C)C)c2ccccc2C(=O)C3=O)nn1)C1=CC(=O)c2ccccc2C1=O` (stereo not shown) [Compound 39], the IC50 in the series with SARS-CoV-2 PL^pro [2] (0.1 mM DTT in the PLpro assay) was 2.2 µM.
For the compound “Ac-Abu(Bth)-Dap-Gly-Gly-VME [VIR250 (44)]”, the “Inhibition of SARS-CoV-2 PLpro” value with SARS-CoV-2 PL^pro [2] is given as “dose-dependent inhibition”. In addition, the “Inhibition of SARS-CoV PLpro” value in the series with SARS-CoV PL^pro is reported as “dose-dependent inhibition”.
Turning to `Cc1ccc(N)cc1C(=O)N[C@H](C)c1cccc2ccccc12` [GRL0617 (4), GRL0617], in the series on SARS-CoV-2 [9], the EC50 was more than 20 µM.
As for `c1ccc2sc(SSc3nc4ccccc4s3)nc2c1` [2,2’ -dithiobis(benzothiazole) (70), 2,2’ -dithiobis(benzothiazole)], in the series with SARS-CoV-2 PL^pro [10], the “Zinc ejection from PLpro” value was “eject zinc”.
Regarding `COC(=O)/C=C/C(=O)NNC(=O)CCc1ccccc1C(=O)N[C@H](C)c1cccc2ccccc12` [Compound 46], the IC50 with SARS-CoV-2 PL^pro [3] (read-out: IC50, deubiquitinating activity) was […].
For `C[C@H]1COC2=C1C(=O)C(=O)c1c2ccc2c1CCCC2(C)C` [cryptotanshinone (28), cryptotanshinone], the “Intracellular PLpro inhibition” value in the series on SARS-CoV-2 PL^pro [5] is reported as “not conclusive due to cell cytotoxicity”. In addition, the EC50 in the series with SARS-CoV-2 [8] is more than 200 µM.
Turning to `CC1(C)CCC2=C(O1)c1ccccc1C(=O)C2=O` [β-lapachone (35), β-lapachone], the IC50 with SARS-CoV-2 PL^pro [2] (HTS) is 0.61 µM.
Consider `O=c1c2ccccc2[se]n1-c1ccccc1` [Ebselen (55), ebselen], for which the “Zinc ejection from PLpro” value with SARS-CoV-2 PL^pro [10] was “eject zinc”. Besides, the “Inhibition of nsp13 ATPase activity” value in the series with SARS-CoV-2 nsp13 is on record as “inhibit”. The “Inhibition of nsp14 exoribonuclease activity” value with SARS-CoV-2 nsp14 was “inhibit”. In addition, in the series on SARS-CoV-2 [11], the “Antiviral effect in combination with hydroxychloroquine” value was “synergistic antiviral effect” and the “Antiviral activity in combination with remdesivir” value is recorded as “synergistic”.
In the case of `CC1(C)OC2=C(C(=O)C(=O)c3ccccc32)C1n1cc(-c2ccccc2)nn1` (stereo not shown) [Compound 38], the half-inhibitory concentration (IC50) in the series on SARS-CoV-2 PL^pro [2] (0.1 mM DTT in the PLpro assay) was 1.7 µM.
For the compound `Cc1ccc(NC2=CC(=O)c3sc(C)nc3C2=O)cc1` [Cdk4 inhibitor III (34)], in the series on SARS-CoV-2 PL^pro [2] (HTS), the IC50 is 0.39 µM.
With `C[C@H](c1ccccc1Cl)N(C)Cc1cc(O)ccc1Cl` [Jun9-13-9 (11)], in the series on SARS-CoV-2 PL^pro [2] (FRET-based enzymatic assay), the IC50 is 6.67 µM.
Take `C#CC(=O)NNC(=O)CCc1ccccc1C(=O)N[C@H](C)c1cccc2ccccc12` [Compound 48]: the IC50 with SARS-CoV-2 PL^pro [2] (covalent inhibitors) was 0.098 µM. Besides, the “Antiviral EC50” value in the series on SARS-CoV-2 [7] (setting [17]) is “cytotoxic”.
Consider `O=C(O)c1cc(SSc2ccc([N+](=O)[O-])c(C(=O)O)c2)ccc1[N+](=O)[O-]` [5,5’ -dithiobis(2-nitrobenzoic acid)], for which the “Zinc ejection from PLpro” value in the series on SARS-CoV-2 PL^pro [10] was “eject zinc”.
For the compound `CCN(CC)C(=S)SSC(=S)N(CC)CC` [Disulfiram (67), disulfiram], in the series with SARS-CoV-2 PL^pro [10], the “Zinc ejection from PLpro” value was “eject zinc”. For the same compound, the “Inhibition of nsp13 ATPase activity” value in the series on SARS-CoV-2 nsp13 is listed as “inhibit”. Besides, the “Inhibition of nsp14 exoribonuclease activity” value with SARS-CoV-2 nsp14 is recorded as “inhibit”. In the series with SARS-CoV-2 [11], the “Antiviral effect in combination with hydroxychloroquine” value was “synergistic antiviral effect” and the “Antiviral activity in combination with remdesivir” value was “synergistic”.
Take `Oc1c(Cl)cc(Cl)c2cccnc12` [Chloroxine (37), chloroxine]: the “Binding to PLpro in the biolayer interferometry and thermal shift assays” value in the series with SARS-CoV-2 PL^pro [4] was “showed binding”. In addition, in the series on SARS-CoV-2 PL^pro [12], the IC50 was 7.24 µM.
In the case of `CCC(CC)COC(=O)[C@H](C)N[P@](=O)(OC[C@H]1O[C@@](C#N)(c2ccc3c(N)ncnn23)[C@H](O)[C@@H]1O)Oc1ccccc1` [remdesivir (1), remdesivir], the EC50 in the series on SARS-CoV-2 [7] (read-out: Antiviral EC50, SARS-CoV-2 infected Vero E6 cells) is 0.74 µM.
`c1ccc(SSc2ccccn2)nc1` [2,2’ -dithiodipyridine (69), 2,2’ -dithiodipyridine]: in the series on SARS-CoV-2 PL^pro [10], the “Zinc ejection from PLpro” value is listed as “eject zinc”.
Take `C[C@@H](NC(=O)c1ccccc1CCC(=O)NNC(=O)CC#N)c1cccc2ccccc12` [Compound 50]: in the series with SARS-CoV-2 PL^pro [2] (covalent inhibitors), the half-maximal inhibitory concentration (IC50) is 8 µM.
A word on the Kd: it is the concentration at which binding is half-saturated. As for `C[C@H](c1cccc2ccccc12)N1CCC(C(=O)NCc2cc(F)cc(NC(=O)N3CCN(C)CC3)c2)CC1` [Compound 8], in the series on SARS-CoV-2 PL^pro [2], the concentration for half-maximal inhibition (IC50) was 0.44 µM. Besides, at SARS-CoV-2 PL^pro [13], the Kd was 2.6 µM. Also, the “Inhibition of a panel of host DUBs and DUB-like proteases” value in series [14] was “did not show significant inhibition”.
With `O=c1nc(NO)ccn1[C@@H]1O[C@H](CO)[C@@H](O)[C@H]1O` [NHC, β-d-N^4-hydroxycytidine], the Host mutational activity result in the series with mammalian cell culture is on record as “displayed host mutational activity”.
For the compound `O=C1c2ccccc2-c2nc3nnnn3nc21` [PKK1/Akt/Flt dual pathway inhibitor (32)], the half-inhibitory concentration (IC50) in the series with SARS-CoV-2 PL^pro [2] (HTS) was 0.26 µM.
With `COC(=O)/C=C/C(=O)NNC(=O)CCc1ccc(NC(C)=O)cc1C(=O)N[C@H](C)c1cccc2ccccc12` [Compound 47], the IC50 in the series with SARS-CoV-2 PL^pro [2] (covalent inhibitors) was 0.23 µM. In addition, the “Antiviral EC50” value in the series with SARS-CoV-2 [7] (setting [17]) is listed as “insignificant cytoprotective effects”.
For the compound `CC(C)C(=O)OC[C@H]1O[C@@H](n2ccc(NO)nc2=O)[C@H](O)[C@@H]1O` [Molnupiravir (2), molnupiravir], in the series with bacteria, the Ames test result was “positive”.
Regarding `OCCc1ccc(O)cc1` [YRL (21), 4-(2-hydroxyethyl)phenol], in the series with SARS-CoV-2 PL^pro [6], the IC50 is 6.68 ± 1.2 µM. Further, in the series with SARS-CoV-2 [7] (cytopathic effect (CPE) assay), the “Antiviral EC50 (CPE)” value is recorded as “failed to show inhibition”. In the series with SARS-CoV-2 [7] (setting [18]), the EC50 is 1 µM.
As to `C[C@@H](NC(=O)c1ccccc1CCC(=O)NNC(=O)CCl)c1cccc2ccccc12` [Compound 49], the IC50 in the series on SARS-CoV-2 PL^pro [2] (covalent inhibitors) is 5.4 µM.
With `COC(=O)c1ccc(O)c(O)c1` [HE9 (20), methyl 3,4-dihydroxybenzoate], the EC50 in the series on SARS-CoV-2 [7] (read-out: Antiviral EC50 (CPE), cytopathic effect (CPE) assay) is 10.4 µM; with SARS-CoV-2 [7] (setting [18]), 0.13 µM.
